ChEMBL document CHEMBL5634090, “Design of phenothiazine-based cationic amphiphilic derivatives incorporating arginine residues: Potential membrane-active broad-spectrum antimicrobials combating pathogenic bacteria in vitro and in vivo” (Eur J Med Chem, 2023)
≈ marks a conversion by molar mass, not a printed value. Where “and” joins values, the source holds several entries; their conditions need not be identical. Identical values can stand only once. Calls of active or inactive are those of the source. No cut-off for these calls is given here.

Columns and labels:
Klebsiella pneumoniae [1] = assay: Antibacterial activity against Klebsiella pneumoniae ATCC 14581 in presence of 4.5 mmol/L K+ by broth microdilution method; assay type: functional
[2] = Selectivity index, ratio of CC50 for cytotoxicity against mouse NCTC clone 929 cells to MIC for antibacterial activity against Pseudomonas aeruginosa ATCC 9027; assay type: toxicity, cell-based; settings: read-out: Selectivity Index
Escherichia coli [3] = assay: Antibacterial activity against Escherichia coli ATCC 25922 in presence of 2.5 mmol/L Ca2+ by broth microdilution method; assay type: functional
Staphylococcus aureus [4] = assay: Antibacterial activity against Staphylococcus aureus ATCC 29213 in presence of 4.5 mmol/L K+ by broth microdilution method; assay type: functional
Klebsiella pneumoniae [5] = assay: Antibacterial activity against Klebsiella pneumoniae ATCC 10031 assessed as loss in membrane integrity at 8 times MIC incubated for 4 hrs by LIVE/DEAD BacLight bacterial viability assay; assay type: functional, organism-based; settings: Cell membrane
Staphylococcus aureus [6] = assay: Antibacterial activity against Staphylococcus aureus ATCC 29213 in presence of 20 umol/L Fe2+ by broth microdilution method; assay type: functional
Staphylococcus aureus [7] = assay: Inhibition of biofilm formation in Staphylococcus aureus ATCC 29213 at 3.125 ug/ml by crystal violet staining assay relative to control; assay type: functional
Pseudomonas aeruginosa [8] = assay: Antibacterial activity against Pseudomonas aeruginosa ATCC 9027 by microbroth dilution assay; assay type: functional
Staphylococcus aureus [9] = assay: Antibacterial activity against methicillin resistant Staphylococcus aureus NCTC 10442 in presence of 19 umol/L Zn2+ by broth microdilution method; assay type: functional
Klebsiella pneumoniae [10] = assay: Inhibition of biofilm formation in Klebsiella pneumoniae ATCC 10031 at 25 ug/ml by crystal violet staining assay relative to control; assay type: functional
Klebsiella pneumoniae [11] = assay: Inhibition of biofilm formation in Klebsiella pneumoniae ATCC 10031 at 6.25 ug/ml by crystal violet staining assay relative to control; assay type: functional
Klebsiella pneumoniae [12] = assay: Antibacterial activity against Klebsiella pneumoniae ATCC 10031 assessed as reduction in bacterial load at 8 times MIC measured after 2 hrs by time kill assay relative to control; assay type: functional; design: scale not given: the % may be the effect or the level left
Pseudomonas aeruginosa [13] = assay: Antibacterial activity against Pseudomonas aeruginosa ATCC 9027 in presence of 2.50 mmol/L Ca2+ by broth microdilution method; assay type: functional
Escherichia coli [14] = assay: Antibacterial activity against Escherichia coli ATCC 25922 in presence of 1 mmol/L Mg2+ by broth microdilution method; assay type: functional
[15] = Cytotoxicity against HEK293 cells by CCK-8 assay; assay type: toxicity, cell-based; settings: human
Klebsiella pneumoniae [16] = assay: Antibacterial activity against Klebsiella pneumoniae ATCC 10031 assessed as log reduction in bacterial load at 4 times MIC measured after 2 hrs by time kill assay; assay type: functional
Staphylococcus aureus [17] = assay: Antibacterial activity against methicillin resistant Staphylococcus aureus N315 in presence of 140 mmol/L Na+ by broth microdilution method; assay type: functional
[18] = Cytotoxicity against mouse NCTC clone 929 cells by CCK-8 assay; assay type: toxicity, cell-based; settings: NCTC clone 929 (L929) cells
[19] = Selectivity index, ratio of CC50 for cytotoxicity against HEK293 cells to MIC for antibacterial activity against Klebsiella pneumoniae ATCC 14581; assay type: toxicity, cell-based; settings: human, read-out: Selectivity Index
[20] = Selectivity index, ratio of CC50 for cytotoxicity against HEK293 cells to MIC for antibacterial activity against methicillin resistant Staphylococcus aureus NCTC 10442; assay type: toxicity, cell-based; settings: human, read-out: Selectivity Index
Staphylococcus aureus [21] = assay: Antibacterial activity against Staphylococcus aureus ATCC 29213 assessed as log reduction in bacterial load at 4 times MIC measured after 2 hrs by time kill assay; assay type: functional
Klebsiella pneumoniae [22] = assay: Antibacterial activity against Klebsiella pneumoniae ATCC 10031 assessed as reduction in bacterial load at 4 times MIC measured after 2 hrs by time kill assay relative to control; assay type: functional; design: scale not given: the % may be the effect or the level left
Staphylococcus aureus [23] = assay: Antibacterial activity against methicillin resistant Staphylococcus aureus N315 by microbroth dilution assay; assay type: functional
Staphylococcus aureus [24] = assay: Antibiofilm activity against 24 hrs preformed biofilm in Staphylococcus aureus ATCC 29213 assessed as reduction in biofilm viability at 3.125 ug/ml relative to control; assay type: functional; settings: dose 3.125 µg/ml
[25] = Selectivity index, ratio of CC50 for cytotoxicity against HEK293 cells to MIC for antibacterial activity against Klebsiella pneumoniae ATCC 10031; assay type: toxicity, cell-based; settings: human, read-out: Selectivity Index
[26] = Cytotoxicity against mouse NCTC clone 929 cells assessed as cell survival rate at 50 ug/ml by CCK-8 assay relative to control; assay type: toxicity, cell-based; settings: NCTC clone 929 (L929) cells, at 50 µg/mL, read-out: Activity
Klebsiella pneumoniae [27] = assay: Antibacterial activity against Klebsiella pneumoniae ATCC 14581 in presence of 19 umol/L Fe2+ by broth microdilution method; assay type: functional
Klebsiella pneumoniae [28] = assay: Antibacterial activity against Klebsiella pneumoniae ATCC 14581 in presence of 19 umol/L Zn2+ by broth microdilution method; assay type: functional
Staphylococcus aureus [29] = assay: Antibacterial activity against Staphylococcus aureus ATCC 29213 assessed as loss in cell viability at 8 times MIC incubated for 4 hrs by LIVE/DEAD BacLight bacterial viability assay; assay type: functional, organism-based; settings: Cell membrane
Klebsiella pneumoniae [30] = assay: Antibacterial activity against Klebsiella pneumoniae ATCC 10031 in presence of 4.5 mmol/L K+ by broth microdilution method; assay type: functional
Staphylococcus aureus [31] = assay: Antibacterial activity against methicillin resistant Staphylococcus aureus N315 in presence of 2.5 mmol/L Ca2+ by broth microdilution method; assay type: functional
[32] = Selectivity index, ratio of CC50 for cytotoxicity against mouse NCTC clone 929 cells to MIC for antibacterial activity against methicillin resistant Staphylococcus aureus N315; assay type: toxicity, cell-based; settings: read-out: Selectivity Index
Escherichia coli [33] = assay: Antibacterial activity against Escherichia coli ATCC 25922 by microbroth dilution assay; assay type: functional
Staphylococcus aureus [34] = assay: Antibacterial activity against methicillin resistant Staphylococcus aureus N315 in presence of 20 umol/L Fe2+ by broth microdilution method; assay type: functional
Escherichia coli [35] = assay: Antibacterial activity against Escherichia coli ATCC 25922 in presence of 140 mmol/L Na+ by broth microdilution method; assay type: functional
Staphylococcus aureus [36] = assay: Antibacterial activity against Staphylococcus aureus ATCC 29213 assessed as loss in membrane integrity at 8 times MIC incubated for 4 hrs by LIVE/DEAD BacLight bacterial viability assay; assay type: functional, organism-based; settings: Cell membrane
Staphylococcus aureus [37] = assay: Antibacterial activity against Staphylococcus aureus ATCC 29213 in presence of 20 umol/L Fe3+ by broth microdilution method; assay type: functional
Klebsiella pneumoniae [38] = assay: Antibacterial activity against Klebsiella pneumoniae ATCC 10031 in presence of 19 umol/L Fe2+ by broth microdilution method; assay type: functional
Klebsiella pneumoniae [39] = assay: Inhibition of biofilm formation in Klebsiella pneumoniae ATCC 10031 at 0.78 ug/ml by crystal violet staining assay relative to control; assay type: functional
Staphylococcus aureus [40] = assay: Antibacterial activity against methicillin resistant Staphylococcus aureus NCTC 10442 in presence of 20 umol/L Fe3+ by broth microdilution method; assay type: functional
Klebsiella pneumoniae [41] = assay: Induction of resistance development in Klebsiella pneumoniae ATCC 10031 assessed as fold increase in MIC treated over 20 serial passages by microdilution assay; assay type: functional
Staphylococcus aureus [42] = assay: Antibacterial activity against methicillin resistant Staphylococcus aureus N315 in presence of 1 mmol/L Mg2+ by broth microdilution method; assay type: functional
Klebsiella pneumoniae [43] = assay: Antibiofilm activity against 24 hrs preformed biofilm in Klebsiella pneumoniae ATCC 10031 assessed as reduction in biofilm viability at 3.125 ug/ml relative to control; assay type: functional; settings: dose 3.125 µg/ml

Work on `CCCCCCCN1c2ccccc2Sc2ccc(OCC(=O)N[C@@H](CCCNC(=N)N)C(=O)N[C@@H](CCCNC(=N)N)C(N)=O)cc21` yielded an MIC (Klebsiella pneumoniae [1]) of 3.12 µg/mL, a selectivity ratio [2] of 8 and an MIC (Escherichia coli [3]) of 3.12 µg/mL. For the same compound, the MIC (Staphylococcus aureus [4]) was 1.56 µg/mL, the Activity (Klebsiella pneumoniae [5]) was “Active” and the MIC (Staphylococcus aureus [6]) was 1.56 µg/mL. The inhibition at 3.125 µg/mL (Staphylococcus aureus [7]) was 87.2%, the MIC (Pseudomonas aeruginosa [8]) was 6.25 µg/mL (≈ 9.15 µM) and the MIC (Staphylococcus aureus [9]) was 1.56 µg/mL. It also gave an inhibition at 25 µg/mL (Klebsiella pneumoniae [10]) of 96.6%, an inhibition at 6.25 µg/mL (Klebsiella pneumoniae [11]) of 90% and an Activity (Klebsiella pneumoniae [12]) of over 99.9%. For the same compound, the MIC (Pseudomonas aeruginosa [13]) was 6.25 µg/mL, the MIC (Escherichia coli [14]) was 3.12 µg/mL and the CC50 [15] was > 50 µg/mL and 73.3 µM. The “log(activity)” value (Klebsiella pneumoniae [16]) was over 3, the MIC (Staphylococcus aureus [17]) was 1.56 µg/mL and the CC50 [18] was > 50 µg/mL and 73.3 µM. The selectivity ratio [19] was 8, the selectivity ratio [20] was 8 and the “log(activity)” value (Staphylococcus aureus [21]) was over 3. It also gave an Activity (Klebsiella pneumoniae [22]) of over 99.9%, an MIC (Staphylococcus aureus [23]) of 1.56 µg/mL (≈ 2.28 µM) and an Activity (Staphylococcus aureus [24]) of 27.75%. The selectivity ratio [25] was 8, the viability at 50 ug/ml [26] was 68.1% and the MIC (Klebsiella pneumoniae [27]) was 3.12 µg/mL. For the same compound, the MIC (Klebsiella pneumoniae [28]) was 3.12 µg/mL, the Activity (Staphylococcus aureus [29]) was “Active” and the MIC (Klebsiella pneumoniae [30]) was 3.12 µg/mL. The MIC (Staphylococcus aureus [31]) was 3.12 µg/mL, the selectivity ratio [32] was 8 and the MIC (Escherichia coli [33]) was 3.12 µg/mL (≈ 4.58 µM). The MIC (Staphylococcus aureus [34]) was 1.56 µg/mL, the MIC (Escherichia coli [35]) was 3.12 µg/mL and the Activity (Staphylococcus aureus [36]) was “Active”. The MIC (Staphylococcus aureus [37]) was 1.56 µg/mL, the MIC (Klebsiella pneumoniae [38]) was 6.25 µg/mL and the inhibition at 0.78 µg/mL (Klebsiella pneumoniae [39]) was 27.1%. The MIC (Staphylococcus aureus [40]) was 1.56 µg/mL, the fold change (FC) (Klebsiella pneumoniae [41]) was under 4 and the MIC (Staphylococcus aureus [42]) was 1.56 µg/mL. The Activity (Klebsiella pneumoniae [43]) was 34.26%.
